Tests used:
Assay in all cases: relative viability (nuclei count vs DMSO), 5 days (fraction); higher = more cells survive
[1] = compound: OCc1c[nH]c2ccccc12 [Indole-3-carbinol] + CC(=O)Nc1cccc(-n2c(=O)n(C3CC3)c(=O)c3c(Nc4ccc(I)cc4F)n(C)c(=O)c(C)c32)c1 [Trametinib] (partner 0.02 µM)
How it was run: (§1)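 Lung cancer cell lines in 1536-well plates got either a single drug or a fixed anchor-drug dose together with five library-drug doses (not always all listed) in √10 steps, by pin tool, on the day after seeding. Nuclei were counted after 5 days, and relative viability is the treated-to-vehicle ratio of nuclei counts. Values are medians of duplicate plates.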

[2] = compound: OCc1c[nH]c2ccccc12 [Indole-3-carbinol] + C[C@@H](Oc1cc(-c2cnn(C3CCNCC3)c2)cnc1N)c1c(Cl)ccc(F)c1Cl [Crizotinib] (partner 1 µM)
How it was run: as §1

[3] = compound: OCc1c[nH]c2ccccc12 [Indole-3-carbinol] + C[C@]1(O)C[C@@H](c2nc(-c3ccc4ccc(-c5ccccc5)nc4c3)c3c(N)nccn32)C1 [Linsitinib] (partner 1 µM)
How it was run: as §1

[4] = compound: OCc1c[nH]c2ccccc12 [Indole-3-carbinol] + Nc1nc2[nH]cc(CCc3ccc(C(=O)N[C@@H](CCC(=O)O)C(=O)O)cc3)c2c(=O)[nH]1 [Pemetrexed] (partner 0.2 µM)
How it was run: as §1

[5] = compound: OCc1c[nH]c2ccccc12 [Indole-3-carbinol] + O=C(c1cc(Cc2n[nH]c(=O)c3ccccc23)ccc1F)N1CCN(C(=O)C2CC2)CC1 [Olaparib] (partner 8 µM)
How it was run: as §1

Cell Line | relative viability ([1]; first compound 0.253 µM) | relative viability ([1]; first compound 0.8 µM) | relative viability ([1]; first compound 2.53 µM) | relative viability ([1]; first compound 8 µM) | relative viability ([2]; first compound 0.253 µM) | relative viability ([2]; first compound 0.8 µM) | relative viability ([2]; first compound 2.53 µM) | relative viability ([2]; first compound 8 µM) | relative viability ([3]; first compound 0.253 µM) | relative viability ([3]; first compound 0.8 µM) | relative viability ([3]; first compound 2.53 µM) | relative viability ([3]; first compound 8 µM) | relative viability ([4]; first compound 0.253 µM) | relative viability ([4]; first compound 0.8 µM) | relative viability ([4]; first compound 2.53 µM) | relative viability ([4]; first compound 8 µM) | relative viability ([5]; first compound 0.253 µM) | relative viability ([5]; first compound 0.8 µM) | relative viability ([5]; first compound 2.53 µM) | relative viability ([5]; first compound 8 µM)
PC-14 | 0.7 | 0.729 | 0.818 | 0.711 | 0.936 | 1.04 | 0.903 | 0.883 | 0.943 | 0.882 | 0.891 | 0.903 | 0.14 | 0.127 | 0.13 | 0.146 | 0.292 | 0.285 | 0.268 | 0.221
RERF-LC-KJ | 0.812 | 0.904 | 0.943 | 0.825 | 0.862 | 0.917 | 0.84 | 0.793 | 0.961 | 0.943 | 0.868 | 0.825 | 0.47 | 0.461 | 0.482 | 0.466 | 0.878 | 0.93 | 0.957 | 0.801
SK-LU-1 | 0.637 | 0.453 | 0.469 | 0.582 | 1.01 | 1.01 | 0.989 | 0.823 | 1.05 | 1.19 | 1.09 | 1.02 | 1.02 | 1.03 | 1.09 | 1.02 | 0.478 | 0.438 | 0.569 | 0.589
SK-MES-1 | 0.539 | 0.627 | 0.56 | 0.54 | 0.996 | 1.07 | 1.03 | 0.965 | 1.12 | 1.13 | 1.08 | 1.07 | 0.926 | 1.01 | 0.927 | 0.939 | 0.758 | 0.888 | 0.632 | 0.615
SW 1573 | 0.512 | 0.605 | 0.534 | 0.564 | 0.722 | 0.936 | 0.833 | 0.678 | 0.77 | 0.898 | 0.932 | 0.754 | 0.803 | 0.846 | 0.881 | 0.975 | 0.499 | 0.526 | 0.546 | 0.479
UMC-11 | 0.713 | 0.727 | 0.675 | 0.683 | 0.589 | 0.708 | 0.696 | 0.577 | 0.937 | 0.983 | 0.963 | 0.967 | 0.787 | 0.757 | 0.751 | 0.717 | 0.549 | 0.359 | 0.499 | 0.944
